± gives the expanded uncertainty stated by the source.
Settings: for molar entropy: 101.33 kPa, Small (less than 1 g) adiabatic calorimetry

N[C@@H](Cc1c[nH]c2ccccc12)C(=O)O [L-tryptophan]
molar entropy (5 K, Crystal): 0.2245 ± 0.033 J/K/mol
molar entropy (10 K, Crystal): 1.663 ± 0.25 J/K/mol
molar entropy (15 K, Crystal): 4.49 ± 0.25 J/K/mol
molar entropy (20 K, Crystal): 8.314 ± 0.25 J/K/mol
molar entropy (25 K, Crystal): 12.64 ± 0.33 J/K/mol
molar entropy (30 K, Crystal): 17.46 ± 0.5 J/K/mol
molar entropy (35 K, Crystal): 22.45 ± 0.58 J/K/mol
molar entropy (40 K, Crystal): 27.52 ± 0.58 J/K/mol
molar entropy (45 K, Crystal): 32.59 ± 0.58 J/K/mol
molar entropy (50 K, Crystal): 37.66 ± 0.58 J/K/mol
molar entropy (60 K, Crystal): 47.73 ± 0.58 J/K/mol
molar entropy (70 K, Crystal): 57.7 ± 0.83 J/K/mol
molar entropy (79.2 K, Crystal 1): 66.6 ± 1.1 J/K/mol
molar entropy (79.2 K, Crystal): 66.6 ± 1.1 J/K/mol
molar entropy (80 K, Crystal 1): 67.26 ± 1.1 J/K/mol
molar entropy (90 K, Crystal 1): 76.16 ± 1.2 J/K/mol
molar entropy (100 K, Crystal 1): 84.89 ± 1.4 J/K/mol
molar entropy (110 K, Crystal 1): 93.54 ± 1.4 J/K/mol
molar entropy (120 K, Crystal 1): 102.02 ± 1.4 J/K/mol
molar entropy (130 K, Crystal 1): 110.25 ± 1.4 J/K/mol
molar entropy (140 K, Crystal 1): 118.48 ± 1.9 J/K/mol
molar entropy (150 K, Crystal 1): 126.63 ± 1.9 J/K/mol
molar entropy (160 K, Crystal 1): 134.61 ± 2.2 J/K/mol
molar entropy (170 K, Crystal 1): 142.59 ± 2.2 J/K/mol
molar entropy (180 K, Crystal 1): 150.49 ± 2.4 J/K/mol
molar entropy (190 K, Crystal 1): 158.39 ± 2.4 J/K/mol
molar entropy (200 K, Crystal 1): 166.21 ± 2.4 J/K/mol
molar entropy (210 K, Crystal 1): 174.02 ± 2.7 J/K/mol
molar entropy (220 K, Crystal 1): 181.75 ± 2.7 J/K/mol
molar entropy (230 K, Crystal 1): 189.49 ± 2.9 J/K/mol
molar entropy (240 K, Crystal 1): 197.22 ± 3.2 J/K/mol
molar entropy (250 K, Crystal 1): 204.87 ± 3.2 J/K/mol
molar entropy (260 K, Crystal 1): 212.6 ± 3.4 J/K/mol
molar entropy (270 K, Crystal 1): 220.33 ± 3.4 J/K/mol
molar entropy (280 K, Crystal 1): 228.07 ± 3.5 J/K/mol
molar entropy (290 K, Crystal 1): 235.72 ± 3.7 J/K/mol
molar entropy (298.15 K, Crystal 1): 242.03 ± 3.7 J/K/mol
molar entropy (300 K, Crystal 1): 243.45 ± 3.7 J/K/mol
molar entropy (310 K, Crystal 1): 251.1 ± 4 J/K/mol
molar entropy (320 K, Crystal 1): 258.75 ± 4 J/K/mol
molar entropy (330 K, Crystal 1): 266.31 ± 4.2 J/K/mol
molar entropy (340 K, Crystal 1): 273.88 ± 4.2 J/K/mol
molar entropy (350 K, Crystal 1): 281.53 ± 4.5 J/K/mol
molar entropy (360 K, Crystal 1): 289.09 ± 4.5 J/K/mol
molar entropy (370 K, Crystal 1): 296.66 ± 4.7 J/K/mol
Triple point temperature (Crystal 2, Adiabatic calorimetry): 79.2 ± 0.2 K

— the NIST ThermoML archive (doi:10.1016/j.jct.2016.09.041)
